Data as given in article PMC8151276, “An Integrated Approach toward NanoBRET Tracers for Analysis of GPCR Ligand Engagement” (Molecules, 2021).

Tests used:
Assay type in all cases: binding
[1] = target: T1, NMUR2 (Homo sapiens, UniProt Q9GZQ4); experiment: NanoBRET screen HiBiT-NMUR2 in HEK293
T1 construct: purchased Promega (in-house HiBiT-GPCR construct library, NanoBRET)
Protocol: (§1) Each tracer candidate was screened across the entire library of HiBiT-GPCR constructs using NanoBRET as the detection modality. As depicted in Figure 4A, the specificity of interactions was evaluated through decrease in BRET due to competitive displacement of a bound tracer by excess parental compound. Each tracer was analyzed for binding to each HiBiT-GPCR fusion in the absence and in the presence of competing parental compound. Briefly, HEK293 cells were transfected with HiBiT-GPCR constructs diluted into promoterless DNA to reduce expression and maximize translocation to the cell surface. Each tracer candidate was then screened at concentrations of 1 μM and 0.1 μM across cells expressing these fusions. Cells were treated for 1.5 h with tracer either alone or in the presence of 20 μM competing parental compound (i.e., control). BRET was measured upon addition of purified LgBiT and subsequent complementation with HiBiT genetically fused to a GPCR. The specificity of interactions was assessed through a decrease in BRET signal due to competitive displacement of the bound tracer. To further gauge the robustness of these interactions, the fold response over the control (i.e., BRETtracer/BRETcontrol) was calculated. We chose a 1.5-fold response, which translates to ≥7-fold signal over noise as the minimal threshold required to score an interaction as positive. […]. Below we highlight the screening results obtained for our exemplary fluorescent tracers based on Clozapine, Amitriptyline and AZD1283.
(§2) HiBiT-GPCR DNA constructs were diluted in 10 mM Tris pH 8 to a final concentration of 0.01 μg/μL, arrayed in 96-well plates and stored at −20 °C. For transfection, HEK293 cells were suspended in Opti-MEM (without phenol red) supplemented with 2% fetal bovine serum (Seradigm) and 100 units/mL penicillin–streptomycin (Gibco) at a final concentration of 220,000 cells/mL and dispensed into white 96-well plates at 90 μL/well. Subsequent transfections and screens were carried using an Agilent Bravo Automated Liquid Handling Platform. First, the 96-well HiBiT DNA arrays were diluted 25-fold in Opti-MEM (without serum or phenol red) to a final concentration of 0.0004 μg/μL and 20 μL of the diluted DNAs were transferred into new 96-well plates. Next, promoterless carrier DNA (1 μg/μL) was diluted 25-fold (0.04 μg/μL) and then dispensed into the diluted arrays at 20 μL/well. Following brief mixing, Viafect transfection reagent (Promega) diluted 16-fold into Opti-MEM was dispensed into the plates at 40 μL/well. After mixing by pipetting, plates were incubated for 10 min on the pipetting station deck. The DNA-transfection reagent complexes were then added to plates containing cells. To facilitate the screen, 10 μL of DNA-transfection reagent complexes were added in duplicates to the top 4 and bottom 4 rows, resulting in two identical 48-well arrays per plate. Plates with transfected cells were incubated for 18–20 h at 37 °C/5% CO2. A screen of each tracer across the entire library using two different concentrations requires duplicate plates of transfected cells. Depending on the number of tracers being screened, transfections can be scaled up using the same ratios. The next day, for each tracer, four 20× screening solutions in tracer dilution buffer (Promega) were prepared: two duplicates at final concentration of 20 μM and two duplicates at a final concentration of 2 μM. A competing unmodified compound was added to one of each duplicate at a final concentration of 400 μM. The four resulting solutions were diluted 4-fold in Opti-MEM without serum or phenol red to generate 5× solutions (5 µM and 0.5 µM tracer +/− 100 μM competing compound). To screen the library, a BioTek MultiFlo FX liquid dispenser was used to dispense 22.5 µL of tracer solution to the top 4 rows and 22.5 µL tracer + competing compound solution to the 4 bottom rows. Plates were briefly mixed on an orbital shaker and incubated for 1.5 h at room temperature. […]

[2] = target: T2, OPRL1 (Homo sapiens, UniProt P41146); experiment: NanoBRET screen HiBiT-OPRL1 in HEK293
T2 construct: purchased Promega (in-house HiBiT-GPCR construct library, NanoBRET)
Protocol: as §1, §2

[3] = target: T3, SSTR5 (Homo sapiens, UniProt P35346); experiment: NanoBRET screen HiBiT-SSTR5 in HEK293
T3 construct: purchased Promega (in-house HiBiT-GPCR construct library, NanoBRET)
Protocol: as §1, §2

[4] = target: T4, SSTR2 (Homo sapiens, UniProt P30874); experiment: NanoBRET screen HiBiT-SSTR2 in HEK293
T4 construct: purchased Promega (in-house HiBiT-GPCR construct library, NanoBRET)
Protocol: as §1, §2

[5] = target: T5, PTGDR2 (Homo sapiens, UniProt Q9Y5Y4); experiment: NanoBRET screen HiBiT-PTGDR2 in HEK293
T5 construct: purchased Promega (in-house HiBiT-GPCR construct library, NanoBRET)
T5 sequence (Q9Y5Y4 1-395): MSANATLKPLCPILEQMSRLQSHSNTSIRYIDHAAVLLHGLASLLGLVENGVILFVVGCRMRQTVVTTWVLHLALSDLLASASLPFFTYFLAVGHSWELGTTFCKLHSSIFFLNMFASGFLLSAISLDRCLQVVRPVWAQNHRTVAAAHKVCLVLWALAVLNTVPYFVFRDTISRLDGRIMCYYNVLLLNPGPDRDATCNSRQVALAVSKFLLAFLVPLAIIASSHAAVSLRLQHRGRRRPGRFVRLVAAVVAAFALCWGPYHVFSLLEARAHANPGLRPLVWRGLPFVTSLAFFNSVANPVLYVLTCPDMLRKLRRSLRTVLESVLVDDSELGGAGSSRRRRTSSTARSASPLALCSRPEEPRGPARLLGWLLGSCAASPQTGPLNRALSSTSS
Protocol: as §1, §2

[6] = target: T6, RXFP3 (Homo sapiens, UniProt Q9NSD7); experiment: NanoBRET screen HiBiT-RXFP3 in HEK293
T6 construct: purchased Promega (in-house HiBiT-GPCR construct library, NanoBRET)
T6 sequence (Q9NSD7 1-469): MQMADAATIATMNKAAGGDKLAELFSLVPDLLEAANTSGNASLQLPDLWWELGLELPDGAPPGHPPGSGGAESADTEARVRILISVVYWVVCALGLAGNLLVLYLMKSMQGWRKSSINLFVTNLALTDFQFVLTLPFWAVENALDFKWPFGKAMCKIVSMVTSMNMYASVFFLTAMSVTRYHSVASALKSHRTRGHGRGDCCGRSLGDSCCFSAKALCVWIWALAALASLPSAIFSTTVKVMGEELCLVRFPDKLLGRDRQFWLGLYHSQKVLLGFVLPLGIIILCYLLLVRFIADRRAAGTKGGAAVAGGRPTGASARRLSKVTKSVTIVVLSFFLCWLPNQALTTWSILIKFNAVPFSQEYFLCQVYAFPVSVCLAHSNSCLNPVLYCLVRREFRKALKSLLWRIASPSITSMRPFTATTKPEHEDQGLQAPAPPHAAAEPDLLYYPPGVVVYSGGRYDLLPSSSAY
Protocol: as §1, §2

[7] = target: T7, ADRB1 (Homo sapiens, UniProt P08588); experiment: NanoBRET screen HiBiT-ADRB1 in HEK293
T7 construct: purchased Promega (in-house HiBiT-GPCR construct library, NanoBRET)
T7 sequence (P08588 whole entry): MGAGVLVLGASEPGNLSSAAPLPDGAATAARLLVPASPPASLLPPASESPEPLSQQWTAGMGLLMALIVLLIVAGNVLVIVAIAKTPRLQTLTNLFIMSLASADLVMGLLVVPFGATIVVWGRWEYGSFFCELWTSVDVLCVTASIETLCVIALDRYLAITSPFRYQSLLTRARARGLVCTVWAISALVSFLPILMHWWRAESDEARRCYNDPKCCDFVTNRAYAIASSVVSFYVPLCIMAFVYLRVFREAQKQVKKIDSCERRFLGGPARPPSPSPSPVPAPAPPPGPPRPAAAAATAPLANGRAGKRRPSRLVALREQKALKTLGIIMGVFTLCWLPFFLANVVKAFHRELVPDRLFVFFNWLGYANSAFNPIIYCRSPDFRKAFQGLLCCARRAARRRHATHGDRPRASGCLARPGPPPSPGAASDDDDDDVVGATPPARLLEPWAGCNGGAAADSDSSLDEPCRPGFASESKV

T2 sequence (P41146 whole entry): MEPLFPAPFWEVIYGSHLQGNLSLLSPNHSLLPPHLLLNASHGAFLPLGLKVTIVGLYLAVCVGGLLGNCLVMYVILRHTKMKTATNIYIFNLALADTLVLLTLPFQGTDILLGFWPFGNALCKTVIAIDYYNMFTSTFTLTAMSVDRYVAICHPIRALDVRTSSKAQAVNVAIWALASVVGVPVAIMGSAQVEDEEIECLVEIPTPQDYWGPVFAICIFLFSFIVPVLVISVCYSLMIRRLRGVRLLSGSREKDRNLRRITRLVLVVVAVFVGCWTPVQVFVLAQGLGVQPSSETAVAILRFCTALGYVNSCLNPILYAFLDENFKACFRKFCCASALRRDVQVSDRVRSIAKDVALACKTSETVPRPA
T3 sequence (P35346 whole entry): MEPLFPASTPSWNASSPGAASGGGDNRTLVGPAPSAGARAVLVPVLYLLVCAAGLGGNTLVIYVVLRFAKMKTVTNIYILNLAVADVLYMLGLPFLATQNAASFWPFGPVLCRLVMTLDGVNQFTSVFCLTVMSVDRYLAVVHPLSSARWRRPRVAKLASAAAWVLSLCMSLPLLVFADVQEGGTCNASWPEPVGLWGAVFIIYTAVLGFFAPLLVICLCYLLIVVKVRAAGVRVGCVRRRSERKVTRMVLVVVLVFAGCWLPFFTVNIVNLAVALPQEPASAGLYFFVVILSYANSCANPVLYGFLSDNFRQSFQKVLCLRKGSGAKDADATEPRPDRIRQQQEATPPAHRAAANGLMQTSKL
T1 sequence (Q9GZQ4 whole entry): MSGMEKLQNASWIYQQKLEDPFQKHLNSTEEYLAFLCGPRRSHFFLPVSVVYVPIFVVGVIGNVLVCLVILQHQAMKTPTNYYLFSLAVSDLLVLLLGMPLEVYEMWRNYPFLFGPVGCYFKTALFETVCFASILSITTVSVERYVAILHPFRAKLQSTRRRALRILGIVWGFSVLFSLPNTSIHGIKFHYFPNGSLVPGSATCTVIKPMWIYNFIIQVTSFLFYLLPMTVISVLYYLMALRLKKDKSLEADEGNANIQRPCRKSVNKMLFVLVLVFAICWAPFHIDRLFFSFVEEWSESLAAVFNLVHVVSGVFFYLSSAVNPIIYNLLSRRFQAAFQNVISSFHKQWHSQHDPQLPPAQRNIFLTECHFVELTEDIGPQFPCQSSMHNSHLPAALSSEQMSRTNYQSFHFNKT
T4 sequence (P30874 whole entry): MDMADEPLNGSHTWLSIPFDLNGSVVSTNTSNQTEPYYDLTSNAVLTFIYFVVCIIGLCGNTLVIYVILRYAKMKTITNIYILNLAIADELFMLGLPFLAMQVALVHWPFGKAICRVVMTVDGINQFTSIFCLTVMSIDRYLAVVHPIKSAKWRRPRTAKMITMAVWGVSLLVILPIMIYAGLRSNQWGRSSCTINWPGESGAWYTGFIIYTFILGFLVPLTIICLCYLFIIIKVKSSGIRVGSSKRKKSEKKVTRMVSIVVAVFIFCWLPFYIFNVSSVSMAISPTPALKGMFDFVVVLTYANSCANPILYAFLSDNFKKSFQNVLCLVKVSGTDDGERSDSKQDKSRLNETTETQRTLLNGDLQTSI

## COc1ccc2c(n1)c(CCNC(C)=O)cn2CCNC(=O)CCc1ccc2n1[B-](F)(F)[N+]1=C(c3ccc[nH]3)C=CC1=C2 [Azamelatonin-1-NB590]
[1]; 0.1μM tracer
  NanoBRET Fold Response: 1.00
[1]; 1μM tracer
  NanoBRET Fold Response: 1.16
[2]; 0.1μM tracer
  NanoBRET Fold Response: 1.14
[2]; 1μM tracer
  NanoBRET Fold Response: 1.14
[3]; 0.1μM tracer
  NanoBRET Fold Response: 0.82
[3]; 1μM tracer
  NanoBRET Fold Response: 0.99
[4]; 0.1μM tracer
  NanoBRET Fold Response: 1.07
[4]; 1μM tracer
  NanoBRET Fold Response: 0.88
[5]; 0.1μM tracer
  NanoBRET Fold Response: 1.08
[5]; 1μM tracer
  NanoBRET Fold Response: 1.09
[6]; 0.1μM tracer
  NanoBRET Fold Response: 1.07
[6]; 1μM tracer
  NanoBRET Fold Response: 1.11
[7]; 0.1μM tracer
  NanoBRET Fold Response: 0.98
[7]; 1μM tracer
  NanoBRET Fold Response: 0.96

## O=C(CCOCCOCCOCCOCCNC(=O)CCc1ccc2n1[B-](F)(F)[N+]1=C(c3ccc[nH]3)C=CC1=C2)NCCCN1CCN(C2=Nc3ccccc3Oc3ccc(Cl)cc32)CC1 [Loxapine-a-2-NB590]
[1]; NMUR2, tracer 0.1μM
  NanoBRET Fold Response: 1.07
[1]; NMUR2, tracer 1μM
  NanoBRET Fold Response: 0.74
[2]; OPRL1, tracer 0.1μM
  NanoBRET Fold Response: 1.00
[2]; OPRL1, tracer 1μM
  NanoBRET Fold Response: 0.89
[3]; SSTR5, tracer 0.1μM
  NanoBRET Fold Response: 1.10
[3]; SSTR5, tracer 1μM
  NanoBRET Fold Response: 1.15
[4]; SSTR2, tracer 0.1μM
  NanoBRET Fold Response: 1.03
[4]; SSTR2, tracer 1μM
  NanoBRET Fold Response: 1.31
[5]; PTGDR2, tracer 0.1μM
  NanoBRET Fold Response: 1.06
[5]; PTGDR2, tracer 1μM
  NanoBRET Fold Response: 1.04
[6]; RXFP3, tracer 0.1μM
  NanoBRET Fold Response: 1.11
[6]; RXFP3, tracer 1μM
  NanoBRET Fold Response: 1.22
[7]; ADRB1, tracer 0.1μM
  NanoBRET Fold Response: 0.97
[7]; ADRB1, tracer 1μM
  NanoBRET Fold Response: 0.97

## CC(C)N(CC[C@H](c1ccccc1)c1cc(CCNC(=O)c2ccc(CNC(=O)CCc3ccc4n3[B-](F)(F)[N+]3=C(c5ccc[nH]5)C=CC3=C4)cc2)ccc1O)C(C)C [Tolterodine-BZ-NB590]
[1]; NMUR2, tracer 0.1μM
  NanoBRET Fold Response: 1.00
[1]; NMUR2, tracer 1μM
  NanoBRET Fold Response: 1.06
[2]; OPRL1, tracer 0.1μM
  NanoBRET Fold Response: 0.92
[2]; OPRL1, tracer 1μM
  NanoBRET Fold Response: 0.88
[3]; SSTR5, tracer 0.1μM
  NanoBRET Fold Response: 1.08
[3]; SSTR5, tracer 1μM
  NanoBRET Fold Response: 1.04
[4]; SSTR2, tracer 0.1μM
  NanoBRET Fold Response: 0.95
[4]; SSTR2, tracer 1μM
  NanoBRET Fold Response: 1.00
[5]; PTGDR2, tracer 0.1μM
  NanoBRET Fold Response: 0.98
[5]; PTGDR2, tracer 1μM
  NanoBRET Fold Response: 0.96
[6]; RXFP3, tracer 0.1μM
  NanoBRET Fold Response: 1.01
[6]; RXFP3, tracer 1μM
  NanoBRET Fold Response: 1.19
[7]; ADRB1, tracer 0.1μM
  NanoBRET Fold Response: 1.02
[7]; ADRB1, tracer 1μM
  NanoBRET Fold Response: 1.10

## O=C(CCc1ccc2n1[B-](F)(F)[N+]1=C(c3ccc[nH]3)C=CC1=C2)NCCOCCOCCNC(=O)OCCOCCN1CCN(C2=Nc3ccccc3Sc3ccccc32)CC1 [Quetiapine-a-2-NB590]
[1]; NMUR2, tracer 0.1μM
  NanoBRET Fold Response: 1.02
[1]; NMUR2, tracer 1μM
  NanoBRET Fold Response: 0.82
[2]; OPRL1, tracer 0.1μM
  NanoBRET Fold Response: 0.90
[2]; OPRL1, tracer 1μM
  NanoBRET Fold Response: 1.00
[3]; SSTR5, tracer 0.1μM
  NanoBRET Fold Response: 1.03
[3]; SSTR5, tracer 1μM
  NanoBRET Fold Response: 0.83
[4]; SSTR2, tracer 0.1μM
  NanoBRET Fold Response: 1.03
[4]; SSTR2, tracer 1μM
  NanoBRET Fold Response: 0.77
[5]; PTGDR2, tracer 0.1μM
  NanoBRET Fold Response: 0.96
[5]; PTGDR2, tracer 1μM
  NanoBRET Fold Response: 1.05
[6]; RXFP3, tracer 0.1μM
  NanoBRET Fold Response: 0.88
[6]; RXFP3, tracer 1μM
  NanoBRET Fold Response: 0.92
[7]; ADRB1, tracer 0.1μM
  NanoBRET Fold Response: 1.00
[7]; ADRB1, tracer 1μM
  NanoBRET Fold Response: 0.91

## CN1CCN(C2=Nc3cc(Cl)ccc3Nc3ccc(CNC(=O)CCOCCOCCOCCOCCNC(=O)CCc4ccc5n4[B-](F)(F)[N+]4=C(c6ccc[nH]6)C=CC4=C5)cc32)CC1 [Clozapine-b-2-NB590]
[1]; NMUR2, 0.1μM tracer
  NanoBRET Fold Response: 0.97
[1]; NMUR2, 1μM tracer
  NanoBRET Fold Response: 1.00
[2]; OPRL1, 0.1μM tracer
  NanoBRET Fold Response: 1.00
[2]; OPRL1, 1μM tracer
  NanoBRET Fold Response: 1.01
[3]; SSTR5, 0.1μM tracer
  NanoBRET Fold Response: 1.03
[3]; SSTR5, 1μM tracer
  NanoBRET Fold Response: 1.00
[4]; SSTR2, 0.1μM tracer
  NanoBRET Fold Response: 1.03
[4]; SSTR2, 1μM tracer
  NanoBRET Fold Response: 1.01
[5]; PTGDR2, 0.1μM tracer
  NanoBRET Fold Response: 1.01
[5]; PTGDR2, 1μM tracer
  NanoBRET Fold Response: 1.02
[6]; RXFP3, 0.1μM tracer
  NanoBRET Fold Response: 0.99
[6]; RXFP3, 1μM tracer
  NanoBRET Fold Response: 1.04
[7]; ADRB1, 0.1μM tracer
  NanoBRET Fold Response: 0.99
[7]; ADRB1, 1μM tracer
  NanoBRET Fold Response: 1.02

## CC(C)N(CC[C@H](c1ccccc1)c1cc(CCNC(=O)CCOCCOCCOCCOCCNC(=O)CCc2ccc3n2[B-](F)(F)[N+]2=C(c4ccc[nH]4)C=CC2=C3)ccc1O)C(C)C [Tolterodine-2-NB590]
[1]; NMUR2, tracer 0.1μM
  NanoBRET Fold Response: 1.31
[1]; NMUR2, tracer 1μM
  NanoBRET Fold Response: 1.07
[2]; OPRL1, tracer 0.1μM
  NanoBRET Fold Response: 1.07
[2]; OPRL1, tracer 1μM
  NanoBRET Fold Response: 0.90
[3]; SSTR5, tracer 0.1μM
  NanoBRET Fold Response: 0.93
[3]; SSTR5, tracer 1μM
  NanoBRET Fold Response: 1.04
[4]; SSTR2, tracer 0.1μM
  NanoBRET Fold Response: 1.04
[4]; SSTR2, tracer 1μM
  NanoBRET Fold Response: 1.00
[5]; PTGDR2, tracer 0.1μM
  NanoBRET Fold Response: 0.95
[5]; PTGDR2, tracer 1μM
  NanoBRET Fold Response: 0.99
[6]; RXFP3, tracer 0.1μM
  NanoBRET Fold Response: 1.18
[6]; RXFP3, tracer 1μM
  NanoBRET Fold Response: 1.10
[7]; ADRB1, tracer 0.1μM
  NanoBRET Fold Response: 1.09
[7]; ADRB1, tracer 1μM
  NanoBRET Fold Response: 0.99
